Laboratory results taken from PubChem BioAssay AID248 (DTP/NCI, 2004).
Inconclusive results and toxic doses are left out. Cut-off read from the data, not from the text of the source: active = T/C of 150% or more; inactive = T/C below 125%.

Test system: L1210 leukemia ip in BDF1 mice, survival T/C
Assay: NCI In Vivo Anticancer Drug Screen. Data for tumor model L1210 Leukemia (intraperitoneal) in B6D2F1 (BDF1) mice
Conditions: endpoint: mean survival time, higher = longer survival
Summary of the method: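 Transplanted-tumor mice were given test agent; controls received vehicle only. Survival readings from the two groups were divided (treated over control).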

[1] = dose: 100.0 mg/kg/injection, schedule: Q01DX001 (ip), vehicle: other
[2] = dose: 200.0 mg/kg/injection, schedule: Q01DX001 (ip), vehicle: other
[3] = dose: 400.0 mg/kg/injection, schedule: Q01DX001 (ip), vehicle: other
[4] = dose: 100.0 mg/kg/injection, schedule: Q01DX001 (ip), vehicle: carboxymethylcellulose (CMC)
[5] = dose: 200.0 mg/kg/injection, schedule: Q01DX001 (ip), vehicle: carboxymethylcellulose (CMC)
[6] = dose: 400.0 mg/kg/injection, schedule: Q01DX001 (ip), vehicle: carboxymethylcellulose (CMC)

Measured: T/C

CC1CCCN(P(c2ccccc2)N2CCCC(C)C2)C1 (centres undefined)
inactive: dose: 100.0 mg/kg/injection, schedule: Q04DX002 (sc), vehicle: olive oil, sesame oil, peanut oil 97 % of control | dose: 200.0 mg/kg/injection, schedule: Q04DX002 (sc), vehicle: olive oil, sesame oil, peanut oil 100 % of control | dose: 400.0 mg/kg/injection, schedule: Q04DX002 (sc), vehicle: olive oil, sesame oil, peanut oil 100 % of control

O=C(Nc1ccc(C(F)(F)F)c([N+](=O)[O-])c1)c1ccc(C(=O)Nc2ccc(C(F)(F)F)c([N+](=O)[O-])c2)cc1
inactive: [1] 96 % of control | [2] 93 % of control | [3] 86 % of control

CC(=O)/C(C)=C/c1ccccc1
inactive: [1] 107 % of control | dose: 100.0 mg/kg/injection, schedule: Q04DX003 (ip), vehicle: saline with Tween-80 100 % of control | [2] 96 % of control | dose: 200.0 mg/kg/injection, schedule: Q04DX003 (ip), vehicle: saline with Tween-80 105 % of control | [3] 91 % of control | dose: 400.0 mg/kg/injection, schedule: Q04DX003 (ip), vehicle: saline with Tween-80 100 % of control

CCC(=N\O)/C(C)=N/O
inactive: dose: 100.0 mg/kg/injection, schedule: Q04DX003 (ip), vehicle: Klucel (hydroxypropylcellulose) (HPC) 103 % of control | dose: 200.0 mg/kg/injection, schedule: Q04DX003 (ip), vehicle: Klucel (hydroxypropylcellulose) (HPC) 103 % of control | dose: 400.0 mg/kg/injection, schedule: Q04DX003 (ip), vehicle: Klucel (hydroxypropylcellulose) (HPC) 100 % of control

COC(=O)CC(=O)c1ccc2ccccc2n1
inactive: dose: 50.0 mg/kg/injection, schedule: Q01DX001 (ip), vehicle: carboxymethylcellulose (CMC) 108 % of control | [4] 100 % of control | [5] 97 % of control | [6] 105 % of control

CCC(N)Cc1ccc(OC)c(OC)c1 (centres undefined)
inactive: dose: 100.0 mg/kg/injection, schedule: Q01DX009 (ip), vehicle: saline 98 % of control | dose: 100.0 mg/kg/injection, schedule: Q04DX003 (ip), vehicle: saline 93 % of control | dose: 200.0 mg/kg/injection, schedule: Q01DX009 (ip), vehicle: saline 98 % of control | dose: 200.0 mg/kg/injection, schedule: Q04DX003 (ip), vehicle: saline 97 % of control

CCOC(=O)c1cc(N/N=C2/CCCNC2=O)c[nH]1
inactive: [4] 99 % of control | [5] 103 % of control | [6] 94 % of control

COC(=O)/C=C/Sc1ccccc1C(=O)OC
inactive: dose: 50.0 mg/kg/injection, schedule: Q04DX003 (ip), vehicle: other 104 % of control | dose: 100.0 mg/kg/injection, schedule: Q04DX003 (ip), vehicle: other 87 % of control | dose: 200.0 mg/kg/injection, schedule: Q04DX003 (ip), vehicle: other 95 % of control
